According to US10028941B2, “Composition for the management of nausea and vomiting” (DUCHESNAY INC., priority 2013, dated 2018):
“Also recorded” adds a separate entry of the source.

Assays:
[1] = tested on: nausea and vomiting of pregnancy symptoms; assay: Randomized controlled efficacy trial of Diclectin vs placebo in pregnant women: plasma levels vs PUQE score; assay type: in vivo, human; conditions: pregnant women treated with Diclectin for 14 days; FIG. 1
Method: A randomized controlled efficacy trial of Diclectin® vs. placebo in pregnant women was carried out as follows, with the results shown in FIG. 1.
To assess the plasma levels of Doxylamine and PLP and the severity of nausea and vomiting of pregnancy symptoms in pregnant women treated with Diclectin®.
The demographic and medical characteristics of the subjects are as described in Koren et al., Am J Obstet Gynecol 2010; 203(6):571.e1-7.
The study design is as described in Koren et al., 2010, supra. Briefly, a randomized, double-blind, multicenter placebo controlled trial studying pregnant women suffering from nausea and vomiting of pregnancy, analyzed by intention to treat. Women received Diclectin (n=131) or placebo (n=125) for 14 days. Nausea and vomiting of pregnancy symptoms were evaluated daily using the pregnancy unique quantification of emesis scale (PUQE-24, Ebrahimi et al., J Obstet Gynaecol Can. 2009 September; 31(9):803-7).

[2] = Randomized controlled bioavailability study, three-way cross over, plasma PLP after treatments A, B, C; conditions: for speed of increase / time of appearance of PLP in the plasma: given together with Doxylamine and Pyridoxine, R5P 40 mg, AUC 0-2 h
Method: The results depicted in FIGS. 2 and 3 were obtained from randomized controlled bioavailability studies in healthy women, which were carried out as follows.
To characterize the pharmacokinetic profile of Pyridoxal-5′-Phosphate (PLP) and to determine whether Riboflavin-5-phosphate (R5P), PLP or PYL in an immediate release formulation can be used to positively alter the kinetics of PLP compared to the current Diclectin® formulation (the current Diclectin® formulation is a delayed release formulation containing 10 mg Doxylamine succinate and 10 mg Pyridoxine-HCl).
Healthy female (n=12) participants between 18 and 45 years of age with a body mass index between 19 and 30 kg/m^2 were administered the treatments described below under empty stomach (fasted) conditions. Blood sampling was conducted extensively from 1 hour pre-administration until 24 hours post-administration. After a wash-out period of 21 days, dose administration and blood sampling was re-conducted as stated above. Doxylamine, Pyridoxine and Pyridoxine metabolites were measured using liquid chromatography-tandem mass spectrometry, as previously described (Nulman and Koren, Can J Clin Pharmacol Vol 16(3):e400-e406, 2009).
Three Way Cross Over Design.
Diclectin®: delayed release formulation containing 10 mg Doxylamine succinate and 10 mg Pyridoxine-HCl (PA-DR).
Immediate release: an oral solution of 20 mg Doxylamine succinate and 20 mg Pyridoxine-HCl (PA-IR).
Treatment group A: One (1) Diclectin® Tablet (current delayed release formulation of 10 mg Doxylamine and 10 mg Pyridoxine-HCl) plus an oral solution of 10 mg Doxylamine and 10 mg Pyridoxal HCl (immediate release) (PYL);
Treatment group B: One (1) Diclectin® Tablet (current delayed release formulation of 10 mg Doxylamine and 10 mg Pyridoxine-HCl) plus an oral solution of 10 mg Doxylamine and 10 mg Pyridoxal-5′-Phosphate (immediate release) (PLP);
Treatment group C: One (1) Diclectin® Tablet (current delayed release formulation of 10 mg Doxylamine and 10 mg Pyridoxine-HCl) plus an oral solution of 10 mg Doxylamine and 10 mg Pyridoxine HCl and 40 mg Riboflavin-5-phosphate (R5P) (immediate release).
Bioavailability; Tmax, Cmax and AUC0-t between each treatment. Doxylamine, and Pyridoxine and its metabolites were measured using liquid chromatography-tandem mass spectrometry, as previously described (Nulman and Koren, Can J Clin Pharmacol Vol 16 (3):e400-e406, 2009).

[3] = Another study with different doses of R5P (5, 10 or 20 mg), plasma PLP levels vs controls; assay type: in vivo, human
Method: In another study, different doses of R5P were tested: 5, 10 or 20 mg of R5P (i.e. equivalent to the formulations administered to Treatment group C above, with the exception that 5, 10 or 20 mg of R5P was used rather than 40 mg R5P; 8 healthy women for each dose), and the PLP levels were compared to those measured in control healthy women not administered with R5P (24 subjects, equivalent to Treatment group A above).

CN(C)CCOC(C)(c1ccccc1)c1ccccn1 (stereo not drawn) [Doxylamine, reference compound]
plasma concentration vs severity of NVP (PUQE score) [1]: correlates with a reduction in the severity of NVP

Cc1ncc(COP(=O)(O)O)c(C=O)c1O [PLP, Pyridoxal 5-phosphate]
plasma concentration vs severity of NVP (PUQE score) [1]: correlates with a reduction in the severity of NVP

Cc1ncc(CO)c(C=O)c1O [PYL, Pyridoxal]
speed of increase / time of appearance of PLP in the plasma [2]: did not result in such improvement

Cc1cc2nc3c(=O)[nH]c(=O)nc-3n(C[C@H](O)[C@H](O)[C@H](O)COP(=O)(O)O)c2cc1C [R5P, riboflavin-5-phosphate]
effect on PLP levels relative to controls ([3]; 5 mg R5P, 8 healthy women, controls without R5P): no significant effect | effect on PLP levels relative to controls ([3]; 10 mg R5P, 8 healthy women, controls without R5P): no significant effect | effect on pharmacokinetics of PLP relative to controls ([3]; 20 mg R5P, 8 healthy women, controls without R5P): some improvement in the pharmacokinetics of PLP | effect with 20 mg R5P compared with 40 mg R5P ([3]; 20 mg vs 40 mg R5P): lower | inter-subject variations in PLP levels ([2]; administration of R5P): less inter-subject variations | time to reach steady-state PLP levels ([2]; administration of R5P): decreased time to reach steady-state PLP levels | speed of increase / time of appearance of PLP in the plasma [2]: faster increase in the plasma level of PLP | speed of increase / time of appearance of PLP in the plasma ([2]; listed as FMN): faster time of appearance in the plasma | PLP concentration (AUC) 0-12 h compared with Diclectin (PA-DR) ([2]; healthy women, fasted, one-way ANOVA, FIG. 2): did not increase PLP levels significantly; also recorded: does not significantly affect PLP levels
